Among the data in PubChem BioAssay (NCI) are TGI values, retold here.

Test systems include DU-145 prostate; SN12C renal; SR leukemia; CAKI-1 renal; KM12 colon; NCI-H23 lung; MALME-3M melanoma; COLO 205 colon; OVCAR-4 ovarian; HCT-116 colon; T-47D breast; OVCAR-8 ovarian; HT29 colon; HCC-2998 colon; SF-295 CNS; MDA-MB-435; OVCAR-5 ovarian; HOP-92 NSCLC.
Holding throughout (assay): inhibition of tumour cell growth, NCI panel, 48 h

SMILES strings stand for the structures.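 All cell lines were grown in 96-well plates and treated with compound for 48 hours. TGI denotes the concentration required for complete inhibition of growth.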

As for `C=C(Br)CN(C(C)=O)C1CCCCC1`, the TGI in the assay with DU-145 prostate, in the assay on SN12C renal, in the assay with SR leukemia, in the assay with CAKI-1 renal, with KM12 colon and in the assay with NCI-H23 lung was over 100 µM in each case. Further, the TGI with MALME-3M melanoma, in the assay on COLO 205 colon, with OVCAR-4 ovarian, in the assay with HCT-116 colon, in the assay on T-47D breast and in the assay on OVCAR-8 ovarian was over 100 µM throughout. The TGI with HT29 colon, in the assay on HCC-2998 colon, in the assay with SF-295 CNS, in the assay on MDA-MB-435 and with OVCAR-5 ovarian was over 100 µM each time.
For `COC1CC(OC2CCC3(C)C(CCC45CCC(C6=CC(=O)OC6)C(C)(CCC43)C5=O)C2)OC(C)C1O` (configuration not stated), the TGI in the assay on DU-145 prostate was 29.3 µM; in the assay with SN12C renal, 61.9 µM; with SR leukemia, 71.8 µM; with CAKI-1 renal it was 80.1 µM; in the assay with KM12 colon, over 100 µM; in the assay on HOP-92 NSCLC, over 100 µM. For the same compound, the TGI is 48.3 µM with NCI-H23 lung; over 100 µM in the assay on COLO 205 colon; over 100 µM with HCT-116 colon; over 100 µM with T-47D breast; over 100 µM in the assay on OVCAR-8 ovarian; over 100 µM in the assay with HT29 colon. The TGI with HCC-2998 colon is 44.4 µM; in the assay on SF-295 CNS, over 100 µM; in the assay on MDA-MB-435, over 100 µM; in the assay with OVCAR-5 ovarian, over 100 µM.
As for `Cc1nn(-c2ccccc2)c2[nH]c(=S)cnc12`, the TGI with DU-145 prostate, with SN12C renal, with SR leukemia, in the assay with CAKI-1 renal, in the assay on HOP-92 NSCLC and with NCI-H23 lung was over 100 µM in each case. The TGI with MALME-3M melanoma, in the assay with OVCAR-4 ovarian, in the assay with HCT-116 colon, in the assay on T-47D breast, in the assay with OVCAR-8 ovarian and in the assay with HT29 colon was over 100 µM each time. Besides, the TGI in the assay with SF-295 CNS, with MDA-MB-435 and in the assay on OVCAR-5 ovarian was over 100 µM throughout.
With `CCOC(=O)[C@@H]1ON2O[C@H](OC3CCCC3(c3ccccc3)c3ccccc3)C[C@H]3OC(=O)[C@@H]1C32` (some centres not stated), the TGI is over 100 µM in the assay on DU-145 prostate; over 100 µM in the assay on SN12C renal; 99.2 µM in the assay with SR leukemia; 46 µM with CAKI-1 renal; 85.4 µM in the assay on KM12 colon; over 100 µM in the assay on HOP-92 NSCLC. Besides, the TGI in the assay on NCI-H23 lung is 65.8 µM; in the assay on COLO 205 colon, over 100 µM; with HCT-116 colon, over 100 µM; in the assay with T-47D breast, 80 µM; in the assay with OVCAR-8 ovarian it was over 100 µM; in the assay on HT29 colon, over 100 µM. Besides, the TGI in the assay on HCC-2998 colon was over 100 µM; in the assay on SF-295 CNS, over 100 µM; in the assay on MDA-MB-435, 97.9 µM; in the assay with OVCAR-5 ovarian, over 100 µM.
`O=[N+]([O-])c1ccc2[nH]ncc2c1Cl`: the TGI is 32.2 µM in the assay with DU-145 prostate; over 100 µM in the assay with SN12C renal; over 100 µM in the assay with SR leukemia; over 100 µM in the assay with KM12 colon; over 100 µM in the assay with HOP-92 NSCLC; 28.2 µM in the assay with COLO 205 colon. The TGI in the assay on OVCAR-4 ovarian is 85.5 µM; in the assay with HCT-116 colon, 80.4 µM; with T-47D breast, 44.4 µM; in the assay on OVCAR-8 ovarian, over 100 µM; in the assay with HT29 colon, 77.4 µM; in the assay with HCC-2998 colon it was over 100 µM. The TGI with SF-295 CNS was over 100 µM; in the assay on MDA-MB-435 it was over 100 µM; with OVCAR-5 ovarian, 62.5 µM.
`C(=NCc1ccccc1)c1ccccc1-c1ccccc1C=NCc1ccccc1`: the TGI in the assay with DU-145 prostate, in the assay with SN12C renal, in the assay with SR leukemia, in the assay on CAKI-1 renal, in the assay with KM12 colon and with HOP-92 NSCLC was over 10 µM in each case. Besides, the TGI with NCI-H23 lung, in the assay on MALME-3M melanoma, with COLO 205 colon, in the assay on OVCAR-4 ovarian, in the assay with HCT-116 colon and with T-47D breast was over 10 µM each time. For the same compound, the TGI with OVCAR-8 ovarian, in the assay on HT29 colon, in the assay with SF-295 CNS, in the assay with MDA-MB-435 and with OVCAR-5 ovarian was over 10 µM each time.
Regarding `CCC1=CC2Cc3nc4cc(Cl)ccc4c(N)c3C(C1)C2` (configuration not stated), the TGI is 28.9 µM with DU-145 prostate; 28.2 µM in the assay with SN12C renal; 8.38 µM in the assay with CAKI-1 renal; 19.5 µM with KM12 colon; 6.48 µM with HOP-92 NSCLC; 17.3 µM in the assay with NCI-H23 lung. Besides, the TGI in the assay with MALME-3M melanoma is 9.46 µM; with COLO 205 colon, 7.11 µM; in the assay with OVCAR-4 ovarian, 17.2 µM; in the assay on HCT-116 colon, 9.77 µM; with T-47D breast, 7.3 µM; in the assay on OVCAR-8 ovarian, over 49.9 µM. Further, the TGI in the assay on HT29 colon was determined as 10.8 µM; with HCC-2998 colon, 3.69 µM; in the assay on SF-295 CNS, 12.2 µM; in the assay with MDA-MB-435, 8.74 µM; in the assay with OVCAR-5 ovarian it was 15.4 µM.
Consider `CC/C=C/C(=O)CC(O)(C(F)(F)F)C(F)(F)F`, for which the TGI is over 100 µM with DU-145 prostate; over 100 µM in the assay on SN12C renal; over 100 µM with SR leukemia; over 100 µM in the assay on KM12 colon; 86.3 µM with HOP-92 NSCLC; over 100 µM in the assay with NCI-H23 lung. Moreover, the TGI in the assay with MALME-3M melanoma, with COLO 205 colon, in the assay with OVCAR-4 ovarian, in the assay on HCT-116 colon, in the assay on T-47D breast and with OVCAR-8 ovarian was over 100 µM each time. Also, the TGI in the assay on HT29 colon, in the assay on HCC-2998 colon, with SF-295 CNS, in the assay on MDA-MB-435 and in the assay on OVCAR-5 ovarian was over 100 µM each time.
Regarding `COc1cc(Nc2cnc3cc(F)c(F)cc3n2)cc(OC)c1`, the TGI in the assay with DU-145 prostate, with SN12C renal, in the assay on SR leukemia, in the assay on CAKI-1 renal, in the assay on KM12 colon and with HOP-92 NSCLC was over 100 µM in each case. Also, the TGI with NCI-H23 lung was 91 µM; in the assay on MALME-3M melanoma it was over 100 µM; with COLO 205 colon, over 100 µM; in the assay with OVCAR-4 ovarian, over 100 µM; in the assay with HCT-116 colon, over 100 µM; in the assay on T-47D breast it was over 100 µM. The TGI in the assay on OVCAR-8 ovarian, in the assay on HT29 colon, in the assay with SF-295 CNS, in the assay with MDA-MB-435 and in the assay with OVCAR-5 ovarian was over 100 µM in each case.
